Measured values as given in the Bradley open melting point set (2014).
Several values for one entry are separate records, joined by “and”; a condition that tells them apart may be missing. Equal values may be shown once.

SMILES	melting point
CSC [Dimethyl sulfide]	-98 °C
CCOC(=O)OCC [Diethyl carbonate]	-43 °C
O=CC1CCCCC1 [cyclohexanecarboxaldehyde]	35 °C
CC(C)(C)c1cccc(C(C)(C)C)c1O [2,6-di-tert-butylphenol]	37 °C
Nc1ccc(C(=O)O)c(O)c1 [Aminosalicylic Acid]	150 °C
CCCN(CCC)S(=O)(=O)c1ccc(C(=O)O)cc1 [4-(Dipropylsulfamoyl)benzoic acid]	195 °C
O=C(O)/C=C/c1cccc(OC(F)(F)F)c1 [3-(trifluoromethoxy)cinnamic acid]	94 °C
CCOC(=O)c1ccc(-n2c(C)cc(C=O)c2C)cc1 [OSM-S-46]	113 °C
Nc1ncnc2c1ncn2[C@@H]1O[C@H](CO)[C@@H](O)[C@H]1O [adenosine]	234 °C
CC(Br)CBr (stereo unspecified) [1,2-dibromopropane]	-55 °C
O=C(O)c1ccc(Cl)cc1Cl [2,4-dichlorobenzoic acid]	162 °C
O=S(Br)Br [thionyl bromide]	-52 °C
CCC(C)=NO [N-Hydroxybutan-2-imine]	-29.5 °C
O=C(O)c1cc(Cl)sc1Cl [2,5-dichlorothiophene-3-carboxylic acid]	148 °C
CCCc1cc(O)nc(S)n1 [6-Propyl-2-sulfanylpyrimidin-4-ol]	220 °C
CC(=O)N1CCN(c2ccc(OC[C@H]3CO[C@](Cn4ccnc4)(c4ccc(Cl)cc4Cl)O3)cc2)CC1 [ketoconazol]	146 °C
Oc1ccccc1-c1ccccc1O [2,2'-dihydroxybiphenyl]	109 °C
C1=CCCCC1 [cyclohexene]	-104 °C
O=C(O)c1ccc(Br)o1 [5-bromo-2-furoic acid]	190 °C
CCN(CC)CCNC(=O)c1cc(Cl)c(N)cc1OC [metoclopramide]	147 °C
Cc1cc(C)c(C)cc1C [1,2,4,5-tetramethylbenzene]	80 °C

SMILES	melting point
Brc1ccc(Br)cc1 [1,4-dibromobenzene]	87.3 °C and 87 °C and 88 °C
Cc1cc(O)ccc1Cl [4-chloro-3-methylphenol]	67 °C
Nc1ccc([N+](=O)[O-])cc1Cl [2-chloro-4-nitroaniline]	108 °C
C=C(C)C(=O)OC [Methyl methacrylate]	-48 °C
OC[C@H]1O[C@@H]2O[C@H]3[C@H](O)[C@@H](O)[C@@H](O[C@H]4[C@H](O)[C@@H](O)[C@@H](O[C@H]5[C@H](O)[C@@H](O)[C@@H](O[C@H]6[C@H](O)[C@@H](O)[C@@H](O[C@H]7[C@H](O)[C@@H](O)[C@@H](O[C@H]8[C@H](O)[C@@H](O)[C@@H](O[C@H]1[C@H](O)[C@H]2O)O[C@@H]8CO)O[C@@H]7CO)O[C@@H]6CO)O[C@@H]5CO)O[C@@H]4CO)O[C@@H]3CO	290 °C
COC(=O)c1sccc1N [methyl 3-aminothiophene-2-carboxylate]	65 °C
COc1cc(C=O)cc(Br)c1O [5-bromovanillin]	164 °C
COC(=O)CC(C)CCC1C(C)(O)CCC2C(C)(C)CCCC21C (stereo unspecified)	70 °C
ClCC1CO1 (stereo unspecified) [epichlorohydrin]	-57 °C
C=CCCCCCCCCCCCC [1-tetradecene]	-12 °C
COc1cccc(OC)c1P(c1c(OC)cccc1OC)c1c(OC)cccc1OC [tris(2,6-dimethoxyphenyl)phosphine]	146 °C
O=C1C=CC(=O)C2CC3=C(CC4=C(C3)CC3C(=O)C=CC(=O)C3C4)CC12 (stereo unspecified)	338 °C
CC(=O)OC[C@H]1O[C@H](OC(C)=O)[C@H](OC(C)=O)[C@@H](OC(C)=O)[C@@H]1OC(C)=O [alpha-D-glucose pentaacetate]	111 °C
CCCCC(C)=O [2-hexanone]	-56 °C
Cc1ccc(S(=O)(=O)NC2CCCCC2)cc1 [N-Cyclohexyl-4-methylbenzenesulfonamide]	84.5 °C
CC(=O)Nc1ccc([N+](=O)[O-])cn1 [2-acetamido-5-nitropyridine]	200 °C
CC(Cl)(Cl)Cl [1,1,1-trichloroethane]	-30 °C
CC(C)OC(=O)/N=N/C(=O)OC(C)C [diisopropyl azodicarboxylate]	4 °C
C[SiH](C)O[Si](C)(C)O[SiH](C)C [1,1,3,3,5,5-hexamethyltrisiloxane]	-67 °C
C[C@@H](O)[C@H](N)C(=O)O [L-Threonine]	256 °C
O=C(CCCN1CCC(O)(c2ccc(Cl)cc2)CC1)c1ccc(F)cc1 [Haloperidol]	152 °C

SMILES	melting point
CC(=O)Nc1ccc(Br)cc1C [4'-bromo-2'-methylacetanilide]	156 °C
CC(=O)Oc1ccc([N+](=O)[O-])cc1 [4-nitrophenyl acetate]	78 °C
CCCCCCCCCCCCCCCCC(=O)O [heptadecanoic acid]	61 °C
O=C(O)COc1cccc(Cl)c1 [3-chlorophenoxyacetic acid]	108 °C
CN1CCN(C2CCNCC2)CC1 [1-methyl-4-(4-piperidinyl)piperazine]	55 °C
COC(=O)C1=C(C)NC(C)=C(C(=O)OC)C1c1ccccc1[N+](=O)[O-] [Nifedipine]	173 °C
O=C(O)c1cc(O)ccc1O [gentisic acid]	205 °C
NC(=O)C(Cl)(Cl)Cl [2,2,2-Trichloroacetamide]	142 °C
CCOC(=O)c1c(SC)n[nH]c1N	143 °C
N#CCc1cccc(O)c1 [m-hydroxy_phenylacetonitrile]	53 °C
CC(=O)c1ccc2c(c1)CCO2 [5-acetyl-2,3-dihydrobenzo[b]furan]	58 °C
CC1(C)C(=O)OC2=C(CC3C4CC=C5CC(O)CCC5(C)C4CCC23C)C1c1ccccc1 (stereo unspecified)	233 °C
O=C(O)c1ccccc1-c1c2cc(Br)c(=O)c(Br)c-2oc2c(Br)c(O)c(Br)cc12	300 °C
ClC(Cl)=C(Cl)C(Cl)=C(Cl)Cl [hexachloro-1,3-butadiene]	-21 °C
CC(C)S[C@@H]1O[C@H](CO)[C@H](O)[C@H](O)[C@H]1O [isopropyl-beta-d-thiogalactoside]	112 °C
CN1C(=O)CCC(N2C(=O)c3ccccc3C2=O)C1=O (stereo unspecified) [N-Methylthalidomide]	159 °C
CC1=C(C)C(C)N=N1 (stereo unspecified) [1H-pyrazole, 3,4,5-trimethyl-]	138 °C
Nc1cc(C(F)(F)F)ccc1Cl [2-chloro-5-(trifluoromethyl)aniline]	9 °C
CCOC(=O)C1=C(C)N=NC1C (stereo unspecified) [ethyl 3,5-dimethyl-1H-pyrazole-4-carboxylate]	119 °C
CC(C)CCC[C@@H](C)[C@H]1CC[C@H]2[C@@H]3CCC4=CC(=O)CC[C@]4(C)[C@H]3CC[C@]12C [4-cholesten-3-one]	80 °C

Further lines, results first:

melting point	SMILES
48 °C	Cc1ccc(-c2ccccc2)s1 [2-methyl-5-phenylthiophene]
145 °C	N#Cc1cc(-c2ccccc2)cnc1Cl [2-chloro-3-cyano-5-phenylpyridine]
116 °C	O=C(O)Cc1ccccc1-c1ccccc1 [o-phenyl_phenylacetic_acid]
83 °C	O=C1c2ccccc2-c2ccccc21 [9H-Fluoren-9-one]
185 °C	CN(C)CCC=C1c2ccccc2COc2ccccc21 [Doxepin]
48 °C	Cc1ccc(I)cc1N [5-iodo-2-methylaniline]
92 °C	O=C(O)CC1Cc2ccccc2C1 [2-indanylacetic acid]
75 °C	CCOC(=O)c1ccc(-n2cccc2)cc1 [ethyl 4-(1-pyrrolyl)benzoate]
135 °C	O=C1C=C(NCNc2ccccn2)C(=O)c2ccccc21 [2-{[(pyridin-2-ylamino)methyl]amino}naphthalene-1,4-dione]
70.5 °C	C=C(CC1c2ccccc2C(=O)N1Cc1ccccc1)c1ccccc1 (stereo unspecified) [2-Benzyl-3-(2-phenyl-2-propenyl)isoindolin-1-one]
166 °C	Cc1ccc(/N=N/c2ccc(N(C)C)cc2)cc1 [4-dimethylamino-4'-methylazobenzene]
159 °C	NC(=O)/C(=N\Nc1ccc(F)cc1)c1nc2ccccc2s1
217 °C	OB(O)c1ccccc1 [benzeneboronic acid]
112 °C	Cc1cc(=O)n(-c2ccccc2)n1C [Antipyrine]
-7 °C	COC(=O)c1ccccc1O [methyl_salicylate]
46 °C	Cc1cccc(C)c1O [2,6-dimethylphenol]
76 °C	CC1=CC(O)(c2ccccc2)c2ccccc21 (stereo unspecified) [3-methyl-1-phenyl-1H-inden-1-ol]

melting point	SMILES
141 °C	OB(O)c1cccc(Oc2ccccc2)c1 [3-phenoxybenzeneboronic acid]
228 °C	CN1CCN(CCCN2c3ccccc3Sc3ccc(Cl)cc32)CC1 [prochlorperazine]
88 °C	O=C(CCC(=O)Oc1ccccc1)Oc1ccccc1 [diphenyl succinate]
180 °C	O=[N+]([O-])c1ccc(O)c2ncccc12 [8-hydroxy-5-nitroquinoline]
188 °C	NC(=S)Nc1cccc2ccccc12 [N-(1-naphthyl)thiourea]
12 °C	Oc1cccc(F)c1 [3-fluorophenol]
107 °C	CCCCC1C(=O)N(c2ccccc2)N(c2ccccc2)C1=O [phenylbutazone]
21 °C	O=C(OCc1ccccc1)c1ccccc1 [Benzyl Benzoate]
30 °C	Cc1cc(O)ccc1F [4-fluoro-3-methylphenol]
135 °C	O=C(c1ccccc1)C(O)c1ccccc1 (stereo unspecified) [benzoin]
159 °C	CNc1ccc(C(=O)O)cc1 [4-(methylamino)benzoic acid]
203 °C	O=C1Nc2ccccc2C1=O [Isatin]
-19 °C	CCCCOc1ccccc1 [butyl_phenyl_ether]
270 °C	CC(C)(C)C(=O)Nc1ccccc1B(O)O [2-(2,2,2-trimethylacetamido)benzeneboronic acid]
105 °C	O=Cc1cccc(O)c1 [3-hydroxybenzaldehyde]
186 °C	Oc1ccc2ccc(O)cc2c1 [2,7-dihydroxynaphthalene]
81 °C	COC(=O)C1(C)C(C)=Nc2ccccc21 (stereo unspecified) [methyl 2,3-dimethyl-3H-indole-3-carboxylate]
